Measured values: patent US12269902B2, “Peptide compounds and peptide conjugates for the treatment of cancer through receptor-mediated chemotherapy” (TRANSFERT PLUS, S.E.C., priority 2015, dated 2025)
Non-standard residues stand in square brackets, D forms with d. Residues, ends and D or L forms follow the SMILES beside them. *: point of attachment. X3 = COc1cccc2c1C(=O)c1c(O)c3c(c(O)c1C2=O)C[C@@](O)(C(=O)COC(=O)CC(C)(C)CC(=O)*)C[C@@H]3O[C@H]1C[C@H](N)[C@H](O)[C@H](C)O1; X2 = COc1cc(/C=C/C(=O)CC(=O)/C=C/c2ccc(OC(=O)CC(C)(C)CC(=O)*)c(OC)c2)ccc1O; Nle = CCCC[C@H](N)C(=O)O

Assays:
[1] = system: ES-2 ovarian cancer cells; assay: [3H]-Thymidine incorporation cell proliferation assay, ES-2; type: cell-based; settings: ES-2 (Ovary)
Method: (§1) The effect of the Docetaxel-Katana peptide conjugate on various cell line proliferations was evaluated and compared to unconjugated Docetaxel (Table 4). IC50 values obtained for the Docetaxel-Katana peptide conjugate were very similar to those of Docetaxel in the cancer cells tested.
(§2) The phytochemical Curcumin, unconjugated and conjugated, was also tested on cancer cell proliferation (FIG. 28). Breast cancer cells (MDA-MB231) were incubated with increasing concentrations of KBC106 or curcumin. After 72 hrs, thymidine incorporation assay was performed to assess the anti-proliferative properties of both molecules. IC50 values were extracted from the anti-proliferative curves. […] Proliferation assay was also performed using different types of cancer cells (ovarian, breast, skin and colorectal cancer cells). IC50 values were calculated from the anti-proliferation curves. In all cases, the Curcumin conjugate (KBC106) had stronger anti-proliferative activity (9-100 fold) than unconjugated Curcumin, as shown in Table 6 below.
(§3) Cancer cells were cultured in 96-well white plates (Perkin Elmer). They were synchronized for 24 hours in serum-deprived medium. After incubation of cells with unconjugated drugs (docetaxel, cabazitaxel, doxorubicin) or with drug-Katana peptide conjugates for 2 or 3 days, all media was aspirated and cells were pulse-labeled for 4 hours at 37° C./[…]/5% CO2 with media containing 2.5 μCi/mL [methyl-3H] thymidine (Perkin Elmer). Cells were washed, fixed, and dried before addition of scintillation fluid (Microscint 0, Perkin Elmer). After 24 hours, cell-associated tritium was quantified by counting on a plate reader (TopCount, Perkin Elmer). Incorporated [3H] thymidine was plotted for each drug concentration.

[2] = system: SK-MEL-28 skin cancer cells; assay: [3H]-Thymidine incorporation cell proliferation assay, SK-MEL-28; type: cell-based
Method: as §1, §2, §3

[3] = system: A-375 skin cancer cells; assay: [3H]-Thymidine incorporation cell proliferation assay, A-375; type: cell-based
Method: as §1, §2, §3

[4] = system: MDA-MB-231 breast cancer cells; assay: cells
Method: Breast cancer cells (MDA-MB231) were incubated with increasing concentrations of KBC106 or curcumin. After 72 hrs, thymidine incorporation assay was performed to assess the anti-proliferative properties of both molecules. IC50 values were extracted from the anti-proliferative curves.
as §2, with “curves.” for “curves. In all cases, the Curcumin conjugate (KBC106) had stronger anti-proliferative activity (9-100 fold) than unconjugated Curcumin, as shown in Table 6 below.”
as §3

[5] = system: ES-2 ovarian cancer cells; assay: ES-2 ovarian subcutaneous tumors (Doxorubicin, KBB106); type: in vivo, mice; settings: Day 14 post-treatment; equivalent dose of Doxorubicin 6 mg/kg/week
Method: 25A. Mice were implanted in the flank with ES-2 ovarian cancer cells. Tumor growth was measured using a caliper. When tumors reached a tumor volume of about 150 mm^3, mice were treated with Doxorubicin or KBB106 at an equivalent dose of Doxorubicin (6 mg/kg/week). 25B. […] 25C.
(§4) The effect of the conjugated and unconjugated Doxorubicin was also evaluated on ovarian subcutaneous tumors. Mice were implanted in the with ES-2 ovarian cancer cells. Tumor growth was measured using a caliper. When tumors reached a tumor volume of about 150 mm^3, mice were treated with Doxorubicin or Katana-Doxorubicin conjugate KBB106 at an equivalent dose of Doxorubicin (6 mg/kg/week).

[6] = system: SKOV3 ovarian cancer cells; assay: SKOV3 ovarian subcutaneous tumors (KBB106); settings: KBB106 18 mg/kg/week
Method: 26A. Mice were implanted in the flank with SKOV3 ovarian cancer cells. When tumors reached a volume of about 150 mm^3, mice were treated with KBB106 (18 mg/kg/week) as indicated by the arrows. […] 26B. Body weight of mice was monitored during the treatments.
as §4

[7] = target: T1, sortilin (Homo sapiens, UniProt Q99523); assay: Uptake of KBB106 in ovarian cancer cells with reduced sortilin expression; type: cell-based; settings: ovarian cancer cells transfected with sortilin siRNA
T1 construct: Ovarian cancer cells were transfected with sortilin siRNA (siSortilin) for 24 hrs and then incubated with KBB106; endogenous in cells
T1 sequence (Q99523 78-831): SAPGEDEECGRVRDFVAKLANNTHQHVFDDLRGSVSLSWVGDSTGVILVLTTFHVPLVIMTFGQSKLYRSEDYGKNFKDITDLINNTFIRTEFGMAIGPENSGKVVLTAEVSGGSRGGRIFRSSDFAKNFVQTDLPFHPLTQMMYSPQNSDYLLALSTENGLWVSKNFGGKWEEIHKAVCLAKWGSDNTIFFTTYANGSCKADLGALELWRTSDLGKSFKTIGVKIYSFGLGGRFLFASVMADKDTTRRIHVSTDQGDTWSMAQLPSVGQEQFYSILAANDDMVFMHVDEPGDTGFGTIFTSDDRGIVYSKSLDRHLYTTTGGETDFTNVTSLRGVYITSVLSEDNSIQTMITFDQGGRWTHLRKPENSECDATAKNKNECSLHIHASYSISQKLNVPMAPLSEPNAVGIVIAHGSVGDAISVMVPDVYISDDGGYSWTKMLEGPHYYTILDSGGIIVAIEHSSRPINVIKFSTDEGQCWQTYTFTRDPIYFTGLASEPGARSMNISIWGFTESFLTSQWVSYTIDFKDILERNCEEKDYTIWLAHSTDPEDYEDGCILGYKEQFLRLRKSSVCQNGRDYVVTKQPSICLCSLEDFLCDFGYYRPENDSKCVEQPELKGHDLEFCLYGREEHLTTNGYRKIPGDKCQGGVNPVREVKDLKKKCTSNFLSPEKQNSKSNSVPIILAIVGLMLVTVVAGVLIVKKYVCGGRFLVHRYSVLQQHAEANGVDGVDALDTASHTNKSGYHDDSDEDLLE
Method: A. Ovarian cancer cells were transfected with sortilin siRNA (siSortilin) for 24 hrs and then incubated with KBB106. Accumulation of KBB106 was monitored by the released of fluorescent Doxorubicin as a function of time. B. Ovarian cancer cells were incubated with KBB106 in the presence or absence of sortilin ligand (Katana peptide, progranulin). KBB106 accumulation was estimated by the released of fluorescent Doxorubicin.
The uptake of the Katana conjugate is increased in cells expressing the sortilin receptor.

[8] = system: HT-29 colorectal cancer cells; assay: cells; type: cell-based; settings: Table 6
Method: as §2, §3

[9] = system: HCC-1954 breast cancer cells; assay: cells; type: cell-based; settings: HCC-1954 (HER2+; Lapatinib resistant); Table 6
Method: as §2, §3

[10] = system: HCC-1569 breast cancer cells; assay: cells; type: cell-based; settings: HCC-1569 (HER2+; Herceptin resistant); Table 6
Method: as §2, §3

[11] = Homo sapiens, SK-MEL-28 (Skin), Table 4, 2 or 3 days
[12] = Homo sapiens, A-375 (Skin), Table 4, 2 or 3 days

Row | Compound | IC50 ([1]; Table 4, 2 or 3 days) | IC50 [2, 11] | IC50 [3, 12] | IC50 ([4]; Homo sapiens, MDA-MB-231) | tumor volume decrease compared to the vehicle group [5] | further results
1 | CO[C@H]1C(=O)[C@]2(C)[C@@H](OC)C[C@H]3OC[C@@]3(OC(C)=O)[C@H]2[C@H](OC(=O)c2ccccc2)[C@]2(O)C[C@H](OC(=O)[C@H](O)[C@@H](NC(=O)OC(C)(C)C)c3ccccc3)C(C)=C1C2(C)C [Cabazitaxel, cabazitaxel] | 0.00066 µM | 0.00012 µM | 0.00034 µM | 0.00044 µM |  | 
2 | COc1cccc2c1C(=O)c1c(O)c3c(c(O)c1C2=O)C[C@@](O)(C(=O)CO)C[C@@H]3O[C@H]1C[C@H](N)[C@H](O)[C@H](C)O1 [Doxorubicin, doxorubicin] | 0.0735 µM | 0.0793 µM | 0.0118 µM | 0.0097 µM | 43% | 
3 | CCCC[C@H](NC(=O)[C@H](CC(N)=O)NC(=O)[C@H](CCCNC(=N)N)NC(=O)[C@@H](NC(=O)CNC(=O)[C@H](C)NC(=O)[C@H](CCCCNC(=O)CC(C)(C)CC(=O)OCC(=O)[C@]1(O)Cc2c(O)c3c(c(O)c2[C@@H](O[C@H]2C[C@H](N)[C@H](O)[C@H](C)O2)C1)C(=O)c1c(OC)cccc1C3=O)NC(=O)[C@H](C)NC(=O)[C@H](CCCNC(=N)N)NC(=O)[C@@H](NC(=O)CNC(C)=O)C(C)C)C(C)C)C(=O)N[C@@H](Cc1ccccc1)C(=O)N[C@@H](CCCCNC(=O)CC(C)(C)CC(=O)OCC(=O)[C@]1(O)Cc2c(O)c3c(c(O)c2[C@@H](O[C@H]2C[C@H](N)[C@H](O)[C@H](C)O2)C1)C(=O)c1c(OC)cccc1C3=O)C(=O)N[C@@H](CO)C(=O)N[C@@H](CCC(=O)O)C(=O)N[C@@H](CO)C(=O)N[C@@H](Cc1ccc(O)cc1)C(=O)O [KBB-106, Acetyl-GVRAK(doxorubicin)AGVRN(Nle)FK(doxorubicin)SESY] (Ac-GVRAK(X3)AGVRN[Nle]FK(X3)SESY-OH; C-terminus assumed) |  |  |  |  | 97% | effect on body weight [6]: little effect on the body weight; progression of SKOV3 xenograft tumors [6]: significantly decreased compared to the control group; uptake in cells where sortilin expression was reduced [7]: reduced
4 | CCCC[C@H](NC(=O)[C@H](CC(N)=O)NC(=O)[C@H](CCCNC(=N)N)NC(=O)[C@@H](NC(=O)CNC(=O)[C@H](C)NC(=O)[C@H](CCCCNC(=O)CC(C)(C)CC(=O)Oc1ccc(/C=C/C(=O)CC(=O)/C=C/c2ccc(O)c(OC)c2)cc1OC)NC(=O)[C@H](C)NC(=O)[C@H](CCCNC(=N)N)NC(=O)[C@@H](NC(=O)CNC(C)=O)C(C)C)C(C)C)C(=O)N[C@@H](Cc1ccccc1)C(=O)N[C@@H](CCCCNC(=O)CC(C)(C)CC(=O)Oc1ccc(/C=C/C(=O)CC(=O)/C=C/c2ccc(O)c(OC)c2)cc1OC)C(=O)N[C@@H](CO)C(=O)N[C@@H](CCC(=O)O)C(=O)N[C@@H](CO)C(=O)N[C@@H](Cc1ccc(O)cc1)C(=O)O [KBC106, Acetyl-GVRAK(curcumin)AGVRN(Nle)FK(curcumin)SESY] (Ac-GVRAK(X2)AGVRN[Nle]FK(X2)SESY-OH; C-terminus assumed) |  |  |  |  |  | IC50 ([1]; Table 6): 1.52 µM; IC50 ([2]; SK-MEL-28, Table 6): 0.243 µM; IC50 ([3]; A-375, Table 6): 0.326 µM; IC50 ([4]; MDA-MB231 (Triple negative), Table 6, 72 hrs): 0.135 µM; IC50 [8]: 3.6 µM; IC50 [9]: 1.29 µM; IC50 [10]: 1.01 µM
